Laboratory results taken from ChEMBL document CHEMBL1150977, “A quantitative analysis of kinase inhibitor selectivity” (Nat Biotechnol, 2008).

Legend:
[1] = target: T1, Mitogen-activated protein kinase 12 (Homo sapiens, UniProt P53778)
T1 sequence (P53778 whole entry): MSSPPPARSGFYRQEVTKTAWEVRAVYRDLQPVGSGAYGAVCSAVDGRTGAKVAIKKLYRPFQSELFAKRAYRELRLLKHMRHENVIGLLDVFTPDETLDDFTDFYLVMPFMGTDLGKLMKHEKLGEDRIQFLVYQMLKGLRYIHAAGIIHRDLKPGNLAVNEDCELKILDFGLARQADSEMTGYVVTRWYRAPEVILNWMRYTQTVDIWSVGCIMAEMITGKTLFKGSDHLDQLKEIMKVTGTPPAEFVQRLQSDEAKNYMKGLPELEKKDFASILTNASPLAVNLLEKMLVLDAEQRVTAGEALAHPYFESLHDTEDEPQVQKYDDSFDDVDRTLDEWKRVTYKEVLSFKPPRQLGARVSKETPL

[2] = target: Receptor-type tyrosine-protein kinase FLT3 (Homo sapiens, UniProt P36888, N841I)
[3] = target: Interferon-induced, double-stranded RNA-activated protein kinase (Homo sapiens, UniProt P19525)
[4] = target: Tyrosine-protein kinase ABL1 (Homo sapiens, UniProt P00519, H396P)
[5] = target: T2, Serine/threonine-protein kinase RIO1 (Homo sapiens, UniProt Q9BRS2)
T2 sequence (Q9BRS2 whole entry): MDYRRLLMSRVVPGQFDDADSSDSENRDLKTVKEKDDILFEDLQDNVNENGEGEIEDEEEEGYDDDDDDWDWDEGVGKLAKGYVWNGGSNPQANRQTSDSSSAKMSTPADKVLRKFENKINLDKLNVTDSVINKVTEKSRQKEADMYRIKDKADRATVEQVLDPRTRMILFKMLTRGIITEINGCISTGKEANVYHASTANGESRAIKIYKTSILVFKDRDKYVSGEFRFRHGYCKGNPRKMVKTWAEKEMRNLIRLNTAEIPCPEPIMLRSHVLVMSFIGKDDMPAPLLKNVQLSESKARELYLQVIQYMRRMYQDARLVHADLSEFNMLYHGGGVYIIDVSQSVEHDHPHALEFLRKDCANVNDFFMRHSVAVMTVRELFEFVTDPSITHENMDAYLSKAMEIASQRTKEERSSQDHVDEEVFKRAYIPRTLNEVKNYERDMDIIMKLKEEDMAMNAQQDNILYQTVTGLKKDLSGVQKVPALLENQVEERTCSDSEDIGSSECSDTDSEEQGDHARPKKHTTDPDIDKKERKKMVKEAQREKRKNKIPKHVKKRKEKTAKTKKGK

Ephrin type-A receptor 8 = target: T3, Ephrin type-A receptor 8 (Homo sapiens, UniProt P29322)
T3 sequence (P29322 whole entry): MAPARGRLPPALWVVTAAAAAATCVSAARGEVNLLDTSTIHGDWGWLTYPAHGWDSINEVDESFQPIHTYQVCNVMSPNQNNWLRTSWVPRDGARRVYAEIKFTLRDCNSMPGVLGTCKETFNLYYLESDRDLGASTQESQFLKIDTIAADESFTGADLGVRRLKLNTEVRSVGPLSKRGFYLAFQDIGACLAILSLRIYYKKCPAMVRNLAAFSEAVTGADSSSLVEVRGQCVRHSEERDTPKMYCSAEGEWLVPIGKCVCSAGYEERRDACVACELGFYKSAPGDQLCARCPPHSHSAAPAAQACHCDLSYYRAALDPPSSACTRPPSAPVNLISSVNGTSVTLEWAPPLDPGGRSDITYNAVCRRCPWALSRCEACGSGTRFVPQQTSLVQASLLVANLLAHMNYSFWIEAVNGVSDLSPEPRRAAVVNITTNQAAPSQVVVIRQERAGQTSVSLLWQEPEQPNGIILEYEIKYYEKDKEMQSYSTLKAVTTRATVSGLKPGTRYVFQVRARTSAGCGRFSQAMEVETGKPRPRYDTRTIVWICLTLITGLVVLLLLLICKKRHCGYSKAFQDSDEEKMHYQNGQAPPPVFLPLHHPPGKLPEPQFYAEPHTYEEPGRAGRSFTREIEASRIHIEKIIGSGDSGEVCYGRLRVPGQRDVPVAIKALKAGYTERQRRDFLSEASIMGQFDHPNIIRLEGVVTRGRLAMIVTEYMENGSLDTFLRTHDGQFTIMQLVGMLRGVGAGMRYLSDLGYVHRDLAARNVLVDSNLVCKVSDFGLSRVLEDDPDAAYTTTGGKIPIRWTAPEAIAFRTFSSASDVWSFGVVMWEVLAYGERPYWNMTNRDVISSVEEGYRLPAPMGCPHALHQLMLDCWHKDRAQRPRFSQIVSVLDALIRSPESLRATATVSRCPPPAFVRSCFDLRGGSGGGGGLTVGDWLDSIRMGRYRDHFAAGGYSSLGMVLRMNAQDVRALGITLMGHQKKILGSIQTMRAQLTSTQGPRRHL

[6] = target: T4, Serine/threonine-protein kinase NLK (Homo sapiens, UniProt Q9UBE8)
T4 sequence (Q9UBE8 whole entry): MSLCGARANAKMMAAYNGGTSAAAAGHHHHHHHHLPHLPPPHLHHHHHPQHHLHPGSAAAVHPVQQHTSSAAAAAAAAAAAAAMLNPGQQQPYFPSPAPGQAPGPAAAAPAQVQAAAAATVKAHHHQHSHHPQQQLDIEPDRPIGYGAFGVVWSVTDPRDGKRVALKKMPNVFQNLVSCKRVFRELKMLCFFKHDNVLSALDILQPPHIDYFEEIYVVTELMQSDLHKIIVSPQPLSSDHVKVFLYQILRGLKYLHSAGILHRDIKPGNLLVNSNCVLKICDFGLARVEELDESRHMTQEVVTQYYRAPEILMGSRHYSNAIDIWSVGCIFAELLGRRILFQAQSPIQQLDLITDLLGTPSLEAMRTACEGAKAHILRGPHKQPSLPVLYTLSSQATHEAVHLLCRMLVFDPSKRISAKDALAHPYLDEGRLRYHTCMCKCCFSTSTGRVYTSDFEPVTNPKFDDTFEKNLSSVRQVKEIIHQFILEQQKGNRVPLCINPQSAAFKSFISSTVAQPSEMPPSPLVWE

[7] = target: Receptor tyrosine-protein kinase erbB-2 (Homo sapiens, UniProt P04626)
Sequence of Receptor tyrosine-protein kinase erbB-2 (P04626 whole entry): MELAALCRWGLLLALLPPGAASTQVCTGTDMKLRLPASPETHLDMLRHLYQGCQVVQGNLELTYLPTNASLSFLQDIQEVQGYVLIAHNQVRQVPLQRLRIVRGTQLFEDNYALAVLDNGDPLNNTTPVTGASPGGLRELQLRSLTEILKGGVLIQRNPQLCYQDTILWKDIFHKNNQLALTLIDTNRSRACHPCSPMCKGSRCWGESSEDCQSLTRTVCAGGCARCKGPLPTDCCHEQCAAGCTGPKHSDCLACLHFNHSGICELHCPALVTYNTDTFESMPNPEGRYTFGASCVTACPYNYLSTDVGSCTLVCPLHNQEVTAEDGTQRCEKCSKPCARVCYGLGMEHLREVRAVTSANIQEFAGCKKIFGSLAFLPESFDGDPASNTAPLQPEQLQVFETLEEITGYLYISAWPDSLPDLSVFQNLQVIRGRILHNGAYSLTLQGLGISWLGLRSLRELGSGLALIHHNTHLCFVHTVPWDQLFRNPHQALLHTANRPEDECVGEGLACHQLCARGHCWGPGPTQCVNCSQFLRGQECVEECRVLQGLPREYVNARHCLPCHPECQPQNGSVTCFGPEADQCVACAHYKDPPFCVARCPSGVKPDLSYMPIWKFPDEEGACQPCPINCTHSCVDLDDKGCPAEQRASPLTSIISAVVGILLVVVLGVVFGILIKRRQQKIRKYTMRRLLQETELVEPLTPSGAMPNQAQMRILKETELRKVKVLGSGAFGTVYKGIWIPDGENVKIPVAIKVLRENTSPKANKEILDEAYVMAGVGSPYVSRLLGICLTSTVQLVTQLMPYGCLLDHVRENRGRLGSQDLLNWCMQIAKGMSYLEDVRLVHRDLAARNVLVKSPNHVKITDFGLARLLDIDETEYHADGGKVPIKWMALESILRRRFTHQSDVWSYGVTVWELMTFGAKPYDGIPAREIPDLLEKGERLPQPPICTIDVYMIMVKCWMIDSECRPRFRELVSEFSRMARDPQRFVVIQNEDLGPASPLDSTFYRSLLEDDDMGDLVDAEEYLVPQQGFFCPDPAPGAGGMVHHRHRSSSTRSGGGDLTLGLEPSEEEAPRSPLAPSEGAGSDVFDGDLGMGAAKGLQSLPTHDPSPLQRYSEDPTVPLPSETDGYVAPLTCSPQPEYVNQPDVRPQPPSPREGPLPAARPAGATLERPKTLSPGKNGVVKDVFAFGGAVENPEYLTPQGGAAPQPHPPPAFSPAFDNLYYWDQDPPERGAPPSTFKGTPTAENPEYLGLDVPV

Sequence of Interferon-induced, double-stranded RNA-activated protein kinase (P19525 whole entry): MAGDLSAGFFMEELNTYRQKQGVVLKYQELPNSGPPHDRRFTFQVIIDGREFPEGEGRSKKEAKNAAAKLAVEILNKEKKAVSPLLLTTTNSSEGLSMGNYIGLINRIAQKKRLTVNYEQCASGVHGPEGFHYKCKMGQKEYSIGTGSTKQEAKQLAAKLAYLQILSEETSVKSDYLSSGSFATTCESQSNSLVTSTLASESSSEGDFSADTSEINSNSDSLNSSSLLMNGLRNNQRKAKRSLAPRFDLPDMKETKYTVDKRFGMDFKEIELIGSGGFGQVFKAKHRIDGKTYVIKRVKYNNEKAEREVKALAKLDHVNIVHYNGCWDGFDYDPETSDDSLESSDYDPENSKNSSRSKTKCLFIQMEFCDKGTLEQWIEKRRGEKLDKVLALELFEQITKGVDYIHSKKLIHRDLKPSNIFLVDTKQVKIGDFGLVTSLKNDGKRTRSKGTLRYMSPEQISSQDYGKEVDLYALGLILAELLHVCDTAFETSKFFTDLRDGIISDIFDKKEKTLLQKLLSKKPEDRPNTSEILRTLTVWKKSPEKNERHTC

COCC(=O)NC/C=C/c1ccc2ncnc(Nc3ccc(Oc4ccc(C)nc4)c(C)c3)c2c1 [CP-724714]
Kd [1]: > 10 µM | Kd [2]: > 10 µM | Kd [3]: > 10 µM | Kd [4]: > 10 µM | Kd [5]: > 10 µM | Kd (Ephrin type-A receptor 8): > 10 µM | Kd [6]: > 10 µM

CCOc1cc2ncc(C#N)c(Nc3ccc(F)c(Cl)c3)c2cc1NC(=O)/C=C/CN(C)C [PELITINIB]
Kd [7]: 0.5 µM | Kd [1]: > 10 µM | Kd [2]: 2 µM | Kd [3]: 1.9 µM | Kd [5]: > 10 µM | Kd [6]: > 10 µM

NC(=O)c1ccc(-c2nc(-c3ccc4c(c3)OCO4)c(-c3ccccn3)[nH]2)cc1 [SB-431542]
Kd [7]: > 10 µM | Kd [1]: > 10 µM | Kd [3]: > 10 µM | Kd [4]: > 10 µM | Kd [5]: > 10 µM | Kd (Ephrin type-A receptor 8): > 10 µM | Kd [6]: > 10 µM

Nc1nc(Nc2ccc(S(N)(=O)=O)cc2)nn1C(=O)c1c(F)cccc1F [JNJ-7706621]
Kd [7]: > 10 µM | Kd [1]: > 10 µM | Kd (Ephrin type-A receptor 8): > 10 µM | Kd [6]: > 10 µM

Oc1ccc(-c2nc(-c3ccncc3)c(-c3ccc(F)cc3)[nH]2)cc1 [SB-202190]
Kd [7]: > 10 µM | Kd [2]: > 10 µM | Kd [3]: > 10 µM | Kd [4]: > 10 µM | Kd [5]: > 10 µM | Kd (Ephrin type-A receptor 8): > 10 µM | Kd [6]: 0.028 µM
